# Laboratory results reported in US20240228488A1 (TAKEDA PHARMACEUTICAL COMPANY LIMITED, priority 2021, published 2024).
# Molecular target: human activated kallikrein enzyme (Homo sapiens, UniProt P03952)
# Experiment: Plasma kallikrein inhibition, fluorogenic PFR-AMC substrate, 500 pM activated kallikrein format
# Format: biochemical
# Conditions: 500 pM activated kallikrein, 300 uM PFR-AMC, 30 min preincubation, 10 min reaction; read-out: Primary Dose Response Assay: Average EC50
# Method in brief: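 Enzyme at 500 pM preincubated 30 min RT with inhibitors in 20 mM Tris pH 7.5, 1 mM EDTA, 150 mM NaCl, 0.1% PEG-400, 0.1% Triton X-100. Reaction started with 300 uM PFR-AMC, run 10 min RT; fluorescence read at 460 nm emission, 380 nm excitation. EC50 reported in ranges.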
# Chain of human activated kallikrein enzyme (P03952 391-638 limits assumed): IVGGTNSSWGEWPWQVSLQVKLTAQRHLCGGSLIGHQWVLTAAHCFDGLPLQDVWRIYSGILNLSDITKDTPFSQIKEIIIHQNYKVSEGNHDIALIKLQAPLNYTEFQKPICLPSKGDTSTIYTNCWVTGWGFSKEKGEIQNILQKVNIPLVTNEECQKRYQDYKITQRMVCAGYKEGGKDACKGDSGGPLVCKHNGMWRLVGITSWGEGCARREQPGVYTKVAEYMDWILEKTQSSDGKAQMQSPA
# Chain of human activated kallikrein enzyme (P03952 20-390 partner limits assumed): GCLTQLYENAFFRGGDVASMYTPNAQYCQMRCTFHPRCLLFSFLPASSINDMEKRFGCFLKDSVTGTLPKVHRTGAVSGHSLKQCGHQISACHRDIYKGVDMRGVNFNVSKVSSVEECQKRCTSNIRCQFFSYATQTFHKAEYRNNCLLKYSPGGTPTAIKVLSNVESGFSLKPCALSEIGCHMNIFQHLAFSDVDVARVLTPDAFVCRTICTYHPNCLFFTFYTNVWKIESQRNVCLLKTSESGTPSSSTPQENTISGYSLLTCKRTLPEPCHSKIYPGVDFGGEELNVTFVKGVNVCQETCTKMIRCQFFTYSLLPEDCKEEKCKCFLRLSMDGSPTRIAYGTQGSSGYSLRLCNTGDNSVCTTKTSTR
row,EC50 [µM],SMILES
1,1 to 6,"Cc1ccnc([C@H]2C[C@@H]2C(=O)Nc2cc(NCc3cn4cc(C5CC5)ccc4n3)ccc2S(C)(=O)=O)n1 (racemic) [Example 619, rac-(1S*,2S*)—N-(5-(((6-cyclopropylimidazo[1,2-a]pyridin-2-yl)methyl)amino)-2-(methylsulfonyl)phenyl)-2-(4-methylpyrimidin-2-yl)cyclopropane-1-carboxamide]"
2,< 0.001,"Cc1ccnc([C@H]2C[C@@H]2C(=O)Nc2cc(N[C@H](C)c3cn4cc(Cl)cc(N5CC(=O)N(C)C5=O)c4n3)ncn2)n1 [Example 421, (1S,2S)-N-(6-(((R)-1-(6-chloro-8-(3-methyl-2,4-dioxoimidazolidin-1-yl)imidazo[1,2-a]pyridin-2-yl)ethyl)amino)pyrimidin-4-yl)-2-(4-methylpyrimidin-2-yl)cyclopropane-1-carboxamide]"
3,0.01 to 0.1,"CN(C)c1ccc2nc(CNc3cc(NC(=O)[C@H]4C[C@@H]4c4cccc(Cl)c4)ncn3)cn2c1 [Example I-205, (1S,2S)-2-(3-chlorophenyl)-N-(6-(((6-(dimethylamino)imidazo[1,2-a]pyridin-2-yl)methyl)amino)pyrimidin-4-yl)cyclopropane-1-carboxamide]"
4,0.01 to 0.1,"CC(NC(=O)[C@H]1C[C@@H]1c1cccc(Cl)c1)c1cn(Cc2cn3cc(C4CC4)ccc3n2)nn1 (single isomer, unassigned) [Example 589, rac-(1S*,2S*)-2-(3-chlorophenyl)-N-(1-(1-((6-cyclopropylimidazo[1,2-a]pyridin-2-yl)methyl)-1H-1,2,3-triazol-4-yl)ethyl)cyclopropane-1-carboxamide]"
5,0.01 to 0.1,"O=C(Nc1cc(NCc2cn3cc(C4CC4)ccc3n2)ncn1)[C@H]1C[C@@H]1c1cccc(Br)c1 (racemic) [Example 54, rac-(1S*,2S*)-2-(3-bromophenyl)-N-(6-(((6-cyclopropylimidazo[1,2-a]pyridin-2-yl)methyl)amino)pyrimidin-4-yl)cyclopropane-1-carboxamide]"
6,0.01 to 0.1,"O=C(Nc1cc(NCc2nc3ccc(C4CC4)cn3c2F)ncn1)[C@H]1C[C@@H]1c1cccc(Cl)c1 [Example I-152, (1S,2S)-2-(3-chlorophenyl)-N-(6-(((6-cyclopropyl-3-fluoroimidazo[1,2-a]pyridin-2-yl)methyl)amino)pyrimidin-4-yl)cyclopropane-1-carboxamide]"
7,0.001 to 0.01,"O=C(Nc1cc(NCc2cn3cc(C4CC4)cc(N4CC5(C4)CN(C4CC4)C5)c3n2)ncn1)[C@H]1C[C@@H]1c1cccc(Cl)c1 [Example I-12, (1S,2S)-2-(3-chlorophenyl)-N-(6-(((6-cyclopropyl-8-(6-cyclopropyl-2,6-diazaspiro[3.3]heptan-2-yl)imidazo[1,2-a]pyridin-2-yl)methyl)amino)pyrimidin-4-yl)cyclopropane-1-scarboxamide]"
8,0.1 to 1,"CC(=O)OC(Cc1cn2cc(C3CC3)cc(N3CC(=O)N(C)C3=O)c2n1)c1cc(NC(=O)[C@H]2C[C@@H]2c2nccc(C)n2)nc(C)n1 (stereo partly drawn) [Example 673, 2-(6-cyclopropyl-8-(3-methyl-2,4-dioxoimidazolidin-1-yl)imidazo[1,2-a]pyridin-2-yl)-1-(2-methyl-6-((1S,2S)-2-(4-methylpyrimidin-2-yl)cyclopropane-1-carboxamido)pyrimidin-4-yl)ethyl acetate]"
9,0.01 to 0.1,"N#Cc1cc(C2CC2)cn2cc(COc3ccnc(NC(=O)[C@H]4C[C@@H]4c4cccc(Cl)c4)c3)nc12 (racemic) [Example 567, rac-(1S*,2S*)-2-(3-chlorophenyl)-N-(4-((8-cyano-6-cyclopropylimidazo[1,2-a]pyridin-2-yl)methoxy)pyridin-2-yl)cyclopropane-1-carboxamide]"
10,0.001 to 0.01,"O=C(O)c1nc(NCc2cn3cc(C4CC4)ccc3n2)cc(NC(=O)[C@H]2C[C@@H]2c2cccc(Cl)c2)n1 (racemic) [Example 112, rac-4-((1S*,2S*)-2-(3-chlorophenyl)cyclopropane-1-carboxamido)-6-(((6-cyclopropylimidazo[1,2-a]pyridin-2-yl)methyl)amino)pyrimidine-2-carboxylic acid]"
11,> 6,"Cc1ccnc([C@H]2C[C@@H]2C(=O)Nc2cccc(S(=O)(=O)Cc3cn4cc(C5CC5)cc(N5CC(=O)N(C)C5=O)c4n3)c2)n1 [Example I-646, (1S,2S)—N-(3-(((6-cyclopropyl-8-(3-methyl-2,4-dioxoimidazolidin-1-yl)imidazo[1,2-a]pyridin-2-yl)methyl)sulfonyl)phenyl)-2-(4-methylpyrimidin-2-yl)cyclopropane-1-carboxamide]"
12,0.01 to 0.1,"Cc1ccnc([C@H]2C[C@@H]2C(=O)Nc2cc(NC(C)c3cn4cc(C5CC5)cc(N5CC(=O)N(CCOCc6ccccc6)C5=O)c4n3)nc(C3CC3)n2)n1 (stereo partly drawn) [Example 409, (1S,2S)-N-(6-((1-(8-(3-(2-(benzyloxy)ethyl)-2,4-dioxoimidazolidin-1-yl)-6-cyclopropylimidazo[1,2-a]pyridin-2-yl)ethyl)amino)-2-cyclopropylpyrimidin-4-yl)-2-(4-methylpyrimidin-2-yl)cyclopropane-1-carboxamide]"
13,0.001 to 0.01,"Cc1ccnc([C@H]2C[C@@H]2C(=O)Nc2cc(NCc3cn4cc(C5CC5)cc(N5CC(=O)N(C)C5=O)c4n3)c(F)cc2F)n1 [Example 659, (1S,2S)—N-(5-(((6-cyclopropyl-8-(3-methyl-2,4-dioxoimidazolidin-1-yl)imidazo[1,2-a]pyridin-2-yl)methyl)amino)-2,4-difluorophenyl)-2-(4-methylpyrimidin-2-yl)cyclopropane-1-carboxamide]"
14,> 6,"O=C(Nc1cc(NCc2cn3cc(C4CC4)ccc3n2)ccn1)[C@H]1C[C@@H]1c1n[nH]c2ccc(Cl)cc12 (racemic) [Example I-225, rac-(1S*,2S*)-2-(5-chloro-1H-indazol-3-yl)-N-(4-(((6-cyclopropylimidazo[1,2-a]pyridin-2-yl)methyl)amino)pyridin-2-yl)cyclopropane-1-carboxamide]"
15,0.1 to 1,"CN1C(=O)[C@]2(C[C@H]2C(=O)Nc2cc(NCc3cn4cc(C5CC5)ccc4n3)ncn2)c2cc(Cl)ccc21 (racemic) [Example 413, rac-(1R*,2S*)-5′-chloro-N-(6-(((6-cyclopropylimidazo[1,2-a]pyridin-2-yl)methyl)amino)pyrimidin-4-yl)-1′-methyl-2′-oxospiro[cyclopropane-1,3′-indoline]-2-carboxamide]"
16,0.001 to 0.01,"Cc1ccnc([C@H]2C[C@@H]2C(=O)Nc2cc(OC(C)c3cn4cc(C5CC5)cc(N5CC(=O)NC5=O)c4n3)cnn2)n1 (stereo partly drawn) [Example 39, (1S,2S)—N-(5-(1-(6-cyclopropyl-8-(2,4-dioxoimidazolidin-1-yl)imidazo[1,2-a]pyridin-2-yl)ethoxy)pyridazin-3-yl)-2-(4-methylpyrimidin-2-yl)cyclopropane-1-carboxamide]"
17,< 0.001,O=C(Nc1cc(NCc2cn3cc(C4CC4)cc(N4CCCC4=O)c3n2)ccn1)[C@@H]1C[C@H]1c1cccc(Cl)c1 (relative stereo) [Example 118]

# Same assay, conditions: comparative compounds, 500 pM activated kallikrein format; read-out: Primary Dose Response Assay: Average EC50
row,EC50 [µM],SMILES
1,1 to 6,O=C(NC1CC1Cc1cccc(Cl)c1)c1cnn(Cc2cn3cc(C4CC4)ccc3n2)c1 (stereo not shown)
2,1 to 6,O=C(Nc1cc(NCc2cn3cc(C4CC4)ccc3n2)ncn1)NC1CC1c1cccc(Cl)c1 (stereo not shown)
